{
  "source": "paper PMC2746040",
  "about": "(Synapse (New York, N.Y.), 2009)",
  "key": {"D2L-YFP": {"test_system": "D2L-YFP", "assay": "Agonist-induced receptor internalization assessed via confocal microscopy", "assay_type": "cell-based", "conditions": "15 min, room temperature, 50 nM MNPA or 10 μM dopamine"}, "D2L DAR [1]": {"target": "T1, D2L DAR (Rattus norvegicus, UniProt P61169)", "T1 sequence (P61169 whole entry)": "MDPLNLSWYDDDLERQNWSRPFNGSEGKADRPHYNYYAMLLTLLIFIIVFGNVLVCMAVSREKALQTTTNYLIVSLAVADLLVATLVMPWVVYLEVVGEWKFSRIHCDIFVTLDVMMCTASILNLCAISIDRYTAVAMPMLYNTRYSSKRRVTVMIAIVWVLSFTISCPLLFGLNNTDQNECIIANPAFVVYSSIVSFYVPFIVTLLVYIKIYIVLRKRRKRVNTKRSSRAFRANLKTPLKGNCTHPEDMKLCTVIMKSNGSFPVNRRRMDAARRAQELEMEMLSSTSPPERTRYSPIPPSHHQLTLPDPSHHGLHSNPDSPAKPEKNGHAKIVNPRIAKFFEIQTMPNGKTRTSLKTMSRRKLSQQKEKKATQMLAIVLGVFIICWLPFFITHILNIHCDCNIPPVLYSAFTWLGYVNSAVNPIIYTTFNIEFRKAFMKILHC", "assay_type": "binding", "conditions": "intact cells; for hill coefficient: [3H]sulpiride competition"}, "D2L DAR [2]": {"target": "T1, D2L DAR", "assay_type": "cell-based", "conditions": "for % Maximum inhibition: 3 μM forskolin-stimulated cAMP accumulation, 10 min 37°C, HEK293T"}, "D2L DAR [3]": {"target": "T1, D2L DAR", "assay_type": "binding"}, "D3 DAR [4]": {"target": "T2, D3 DAR (Rattus norvegicus, UniProt P19020)", "T2 sequence (P19020 whole entry)": "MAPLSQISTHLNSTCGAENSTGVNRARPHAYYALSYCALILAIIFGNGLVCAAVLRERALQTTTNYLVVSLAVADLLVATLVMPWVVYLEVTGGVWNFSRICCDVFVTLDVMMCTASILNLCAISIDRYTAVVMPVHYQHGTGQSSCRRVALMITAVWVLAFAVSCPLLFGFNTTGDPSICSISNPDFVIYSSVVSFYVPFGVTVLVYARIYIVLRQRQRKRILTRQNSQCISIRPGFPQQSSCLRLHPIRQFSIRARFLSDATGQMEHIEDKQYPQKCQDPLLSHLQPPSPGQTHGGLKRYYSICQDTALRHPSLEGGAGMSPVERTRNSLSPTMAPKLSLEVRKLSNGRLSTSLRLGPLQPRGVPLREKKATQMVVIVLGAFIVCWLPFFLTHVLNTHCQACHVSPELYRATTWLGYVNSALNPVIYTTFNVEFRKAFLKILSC", "assay_type": "binding", "conditions": "read-out: KiL"}, "D3 DAR [5]": {"target": "T2, D3 DAR", "assay_type": "cell-based"}, "D2L DAR [6]": {"target": "T1, D2L DAR", "assay_type": "cell-based", "conditions": "50 nM MNPA or 10 μM dopamine"}, "D2L DAR [7]": {"target": "T1, D2L DAR", "assay_type": "binding", "conditions": "for % decrease of Bmax: by Gpp(NH)p 100 μM"}},
  "note": "Where “and” joins values, the source holds several entries; their conditions need not be identical. Equal entries are not always repeated. Where two headings read alike, the source gives them in different places.",
  "data": [
    {"smiles": "NCCc1ccc(O)c(O)c1", "note": "[Dopamine, dopamine, reference compound]", "values": [
      {"measurement": "internalization of the D2-YFP receptor (confocal images)", "setting": "D2L-YFP", "value": "some of the D2-YFP fluorescence is apparent in punctuated, vesicle-like structures in the cytosol"}
    ]},
    {"smiles": "CCCN1CCc2cc(OC)cc3c2[C@H]1Cc1ccc(O)c(O)c1-3", "note": "[MNPA, (R)-2-^11CH3O-N-n-propylnorapomorphine]", "values": [
      {"measurement": "Ki", "setting": "D2L DAR [1]; [3H]sulpiride ~2 nM, 1 hour 37°C, single site", "value": "109 ± 52", "unit": "nM"},
      {"measurement": "IC50", "setting": "D2L DAR [2]; inhibition of forskolin-stimulated cAMP accumulation, no antagonist", "value": "0.33 ± 0.26", "unit": "nM"},
      {"measurement": "Ki", "setting": "D2L DAR [3]; read-out: KiH, high affinity state, absence of GTP, [3H]methylspiperone ~0.2 nM", "value": "0.09 ± 0.02", "unit": "nM"},
      {"measurement": "Ki", "setting": "D2L DAR [3]; read-out: KiL, + GTP 100 μM, single site", "value": "13.7 ± 3.3", "unit": "nM"},
      {"measurement": "Ki", "setting": "D2L DAR [3]; read-out: KiL, low affinity state, absence of GTP", "value": "16.9 ± 3.2", "unit": "nM"},
      {"measurement": "Ki", "setting": "D3 DAR [4]; + GTP 100 μM (dopamine: one-site fit)", "value": "1.09 ± 1.7", "unit": "nM"},
      {"measurement": "Ki", "setting": "D3 DAR [4]; absence of GTP (dopamine: one-site fit)", "value": "1.02 ± 0.2", "unit": "nM"},
      {"measurement": "IC50", "setting": "D3 DAR [5]; 3 μM forskolin, D3 DAR + AC-V, no antagonist", "value": 3.43, "unit": "nM"},
      {"measurement": "EC50", "setting": "D3 DAR [5]; read-out: EC50 value for inhibiting D3 DAR activity", "value": 3.4, "unit": "nM"}
    ]},
    {"smiles": "CCCN1CCc2cc(O[11CH3])cc3c2[C@H]1Cc1ccc(O)c(O)c1-3", "note": "[MNPA, (R)-2-^11CH3O-N-n-propylnorapomorphine]", "values": [
      {"measurement": "hill coefficient", "setting": "D2L DAR [1]", "value": "1.7 ± 0.2"},
      {"measurement": "% decrease of Bmax", "setting": "D2L DAR [6]; Arrestin2 co-transfection", "value": "53 ± 2", "unit": "%"},
      {"measurement": "Bmax of [3H]sulpiride after agonist pretreatment", "setting": "D2L DAR [6]; Arrestin2 co-transfection", "value": "3.00 ± 0.33", "unit": "fmol/10^5cells"},
      {"measurement": "% decrease of Bmax", "setting": "D2L DAR [6]; Arrestin3 co-transfection", "value": "68 ± 8", "unit": "%"},
      {"measurement": "Bmax of [3H]sulpiride after agonist pretreatment", "setting": "D2L DAR [6]; Arrestin3 co-transfection", "value": "2.75 ± 0.27", "unit": "fmol/10^5cells"},
      {"measurement": "% decrease of Bmax", "setting": "D2L DAR [6]; pcDNA transfection", "value": "23% and 23 ± 7%"},
      {"measurement": "Bmax of [3H]sulpiride after agonist pretreatment", "setting": "D2L DAR [6]; pcDNA transfection", "value": "7.25 ± 0.53", "unit": "fmol/10^5cells"},
      {"measurement": "fold increase of Kd by Gpp(NH)p", "setting": "D2L DAR [7]; Gpp(NH)p 100 μM", "value": "~2", "unit": "fold"},
      {"measurement": "% decrease of Bmax", "setting": "D2L DAR [7]", "value": "21 ± 9", "unit": "%"},
      {"measurement": "% decrease of Bmax", "setting": "D2L DAR [7]; listed as [^3H]MNPA", "value": "17-21%"},
      {"measurement": "% Maximum inhibition", "setting": "D2L DAR [2]", "value": "82 ± 3", "unit": "%"},
      {"measurement": "agonist character at the D2L DAR", "setting": "D2L DAR [2]; cAMP accumulation", "value": "potent and full agonist"},
      {"measurement": "internalization of the D2-YFP receptor (confocal images)", "setting": "D2L-YFP", "value": "promotes internalization of the D2-YFP receptor"},
      {"measurement": "fold lower Ki values than dopamine", "setting": "D2L DAR [3]", "value": "200-1000 fold"},
      {"measurement": "% RH (percentage of receptors configured in the GTP sensitive high-affinity state)", "setting": "D2L DAR [3]; absence of GTP", "value": "24 ± 1", "unit": "%"},
      {"measurement": "fold higher EC50 at D3 DAR compared to D2 DAR", "setting": "D3 DAR [5]", "value": "~10", "unit": "fold"},
      {"measurement": "fold reduction in potency by (+)-butaclamol", "setting": "D3 DAR [5]; 10 μM (+)butaclamol", "value": 100, "unit": "fold"},
      {"measurement": "agonist character at the D3 DAR", "setting": "D3 DAR [5]; cAMP accumulation", "value": "full agonist"},
      {"measurement": "potency relative to dopamine at the D3 DAR", "setting": "D3 DAR [5]; cAMP accumulation", "value": "slightly less potent than dopamine"},
      {"measurement": "inhibition of forskolin stimulated cAMP accumulation", "setting": "D3 DAR [5]; maximal extent", "value": "42-43%"}
    ]},
    {"smiles": "CN1CN(c2ccccc2)C2(CCN(CCCC(=O)c3ccc(F)cc3)CC2)C1=O", "note": "[MSP, methylspiperone, reference compound]", "values": [
      {"measurement": "effect of Gpp(NH)p on binding", "setting": "D2L DAR [7]; Gpp(NH)p 100 μM", "value": "no effect"}
    ]},
    {"smiles": "CCCN1CCc2cccc3c2[C@H]1Cc1ccc(O)c(O)c1-3", "note": "[NPA, N-n-propylnorapomorphine, reference compound]", "values": [
      {"measurement": "hill coefficient", "setting": "D2L DAR [1]", "value": "1.5 ± 0.2"},
      {"measurement": "% decrease of Bmax", "setting": "D2L DAR [7]", "value": "17 ± 5", "unit": "%"},
      {"measurement": "% decrease of Bmax", "setting": "D2L DAR [7]; listed as [^3H]NPA", "value": "17-21%"},
      {"measurement": "% Maximum inhibition", "setting": "D2L DAR [2]", "value": "72 ± 8", "unit": "%"},
      {"measurement": "% RH (percentage of receptors configured in the GTP sensitive high-affinity state)", "setting": "D2L DAR [3]; absence of GTP", "value": "24 ± 1", "unit": "%"}
    ]}
  ]
}
